Test results published in patent publication US20260325685A1, “Radiopharmaceutical Compositions Targeting Carbonic Anhydrase IX and Uses Thereof” (RayzeBio, Inc., priority 2023, published 2026).
Read-outs that look alike come from different tables or passages of the source.

What was measured:
human CA-IX = target: T1, human CA-IX (Homo sapiens, UniProt Q16790); test: Surface Plasmon Resonance (SPR) binding kinetics to recombinant human CA-IX (Biacore 8K, single-cycle kinetics, 1:1 binding model)
T1 construct: purchased Acro CA9-H82E3
Protocol: (§1) G1. Surface Plasmon Resonance Assay Conditions for hCA-IX and hCA-XII
(§2) Surface Plasmon Resonance (SPR) experiments were conducted on a Biacore 8K instrument (Cytiva, Marlborough, MA) to determine the binding kinetics of the compound to recombinant human CA-IX (Acro, CA9-H82E3) and CA-XII (Creative BioMart, CA12-261H) proteins. The ligands were diluted to 10 μg/mL in PBS-P+ buffer (20 mM phosphate buffer, pH 7.4, with 2.7 mM KCl, 137 mM NaCl, and 0.05% Tween 20) and captured on Series S Streptavidin Sensor Chips (Cytiva, 29699621) to 1200-1800 response units (RU) using a flow rate of 5 μL/min and injection times of 180 seconds for human CA-IX and 75 seconds for human CA-XII. Analyte binding was evaluated using a single-cycle kinetics method over 9 analyte concentrations (100-0.39 nM) in PBS-P+ buffer with 1% DMSO using a 50 μL/min. flow rate, 120 second association time, and 1200 second dissociation time. The flow cell temperature was set to 25° C. Analyte binding curves were fit to a 1:1 binding kinetic model in Biacore Insight Evaluation software (version 4.0.8.20368) following reference flow cell subtraction and DMSO correction to derive the association and dissociation binding constants.

human CA-XII = target: T2, human CA-XII (Homo sapiens, UniProt O43570); test: Surface Plasmon Resonance (SPR) binding kinetics to recombinant human CA-XII (Biacore 8K, single-cycle kinetics, 1:1 binding model)
T2 construct: purchased Creative BioMart CA12-261H
T2 sequence (O43570 25-354): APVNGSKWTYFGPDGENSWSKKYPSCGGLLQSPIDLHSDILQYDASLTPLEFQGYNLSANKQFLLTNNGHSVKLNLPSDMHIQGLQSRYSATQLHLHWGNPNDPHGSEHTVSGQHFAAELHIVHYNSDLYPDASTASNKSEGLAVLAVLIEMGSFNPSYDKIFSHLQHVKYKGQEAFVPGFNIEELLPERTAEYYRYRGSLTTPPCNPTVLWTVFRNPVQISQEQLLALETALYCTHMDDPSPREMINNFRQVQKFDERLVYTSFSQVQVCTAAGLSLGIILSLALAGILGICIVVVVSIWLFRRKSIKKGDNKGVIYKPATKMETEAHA
Protocol: as §1, §2

[1] = Chelated Metal: Lu-175; SPR, 25° C., pH 7.4; read-out: CAIX KD
[2] = Chelated Metal: Lu-175, 25° C., pH 7.4, read-out: CAXII KD
[3] = read-out: CAIX KD; Chelated Metal: Lu-175; SPR, 25° C., pH 7.4
[4] = read-out: CAXII KD, Chelated Metal: Lu-175, 25° C., pH 7.4

SMILES	Kd (human CA-IX; [1]) [nM]	Kd (human CA-XII; [2]) [nM]	also measured
NS(=O)(=O)c1nnc(CC(=O)C23CC(c4cn(CCNC(=O)[C@H]5COCCN5C(=O)CC[C@H](NC(=O)[C@H](CCCCNC(=O)CN5CCN(CC(=O)O)CCN(CC(=O)O)CCN(CC(=O)O)CC5)NC(=O)c5n[nH]c6ccccc56)C(=O)O)nn4)(C2)C3)s1.[Lu+3] [Compound 118.4]	1 to 2.5	> 10	–
NS(=O)(=O)c1nnc(NC(=O)C23CC(c4cn(CCNC(=O)[C@@H]5CN(C(=O)CN6CCN(CC(=O)O)CCN(CC(=O)O)CCN(CC(=O)O)CC6)CCN5C(=O)CNC(=O)C5(C(=O)O)CCN(C(=O)CCc6n[nH]c7ccccc67)CC5)nn4)(C2)C3)s1.[Lu+3] [Compound 112.4]	2.5 to 10	> 10	–
NS(=O)(=O)c1nnc(NC(=O)C23CC(c4cn(CCNC(=O)[C@@H]5CN(C(=O)CN6CCN(CC(=O)O)CCN(CC(=O)O)CCN(CC(=O)O)CC6)CCN5C(=O)C[C@H](Nc5ncc(C(=O)NCCc6ccc(F)c(F)c6)cn5)C(=O)O)nn4)(C2)C3)s1.[Lu+3] [Compound 111.8]	2.5 to 10	> 10	–
CC(CCCC(=O)N1CCC2(CC2)C[C@H]1C(=O)N[C@@H](CC(=O)N1CCN(C(=O)CN2CCN(CC(=O)O)CCN(CC(=O)O)CCN(CC(=O)O)CC2)C[C@@H]1C(=O)NCCn1cc(C23CC(C(=O)Nc4nnc(S(N)(=O)=O)s4)(C2)C3)nn1)C(=O)O)(c1ccc(O)cc1)c1ccc(O)cc1.[Lu+3] [Compound 107.33]	< 1	> 10	–
NS(=O)(=O)c1nnc(NC(=O)C23CC(c4cn(CCNC(=O)[C@@H]5CN(C(=O)CN6CCN(CC(=O)O)CCN(CC(=O)O)CCN(CC(=O)O)CC6)CCN5C(=O)C[C@H](Nc5ncc(C(=O)NCc6ccc(C(F)F)cc6)cn5)C(=O)O)nn4)(C2)C3)s1.[Lu+3] [Compound 111.6]	2.5 to 10	> 10	–
CC(CCCC(=O)N1CCOC[C@H]1C(=O)N[C@@H](CC(=O)N1CCN(C(=O)CN2CCN(CC(=O)O)CCN(CC(=O)O)CCN(CC(=O)O)CC2)C[C@H]1C(=O)NCCn1cc(C23CC(C(=O)Nc4nnc(S(N)(=O)=O)s4)(C2)C3)nn1)C(=O)O)(c1ccc(O)cc1)c1ccc(O)cc1.[Lu+3] [Compound 107.29]	< 1	> 10	–
NS(=O)(=O)c1nnc(NC(=O)C23CC(c4cn(CCNC(=O)[C@@H]5CN(C(=O)CN6CCN(CC(=O)O)CCN(CC(=O)O)CCN(CC(=O)O)CC6)CCN5C(=O)C[C@H](Nc5ncc(C(=O)NCc6ccc(S(F)(F)(F)(F)F)cc6)cn5)C(=O)O)nn4)(C2)C3)s1.[Lu+3] [Compound 111]	–	–	Kd (human CA-IX; [3]): 2.5 to 10 nM; Kd (human CA-XII; [4]): > 10 nM
NS(=O)(=O)c1nnc(NC(=O)C23CC(c4cn(CCNC(=O)[C@@H]5CN(C(=O)CN6CCN(CC(=O)O)CCN(CC(=O)O)CCN(CC(=O)O)CC6)CCN5C(=O)C[C@H](NC(=O)C[C@H](NC(=O)c5ccc(CC6CC6)cc5)C(=O)O)C(=O)O)nn4)(C2)C3)s1.[Lu+3] [Compound 109.38]	< 1	2.5 to 10	–
NCCNC(=O)c1cnc(N[C@@H](CC(=O)N2CCN(C(=O)CN3CCN(CC(=O)O)CCN(CC(=O)O)CCN(CC(=O)O)CC3)C[C@H]2C(=O)NCCn2cc(C34CC(C(=O)Nc5nnc(S(N)(=O)=O)s5)(C3)C4)nn2)C(=O)O)nc1.[Lu+3] [Compound 111.12]	2.5 to 10	> 10	–
CC(CCCOc1cc(NC(CC(=O)N[C@@H](CCCCn2cc(CCCC(=O)Nc3nnc(S(N)(=O)=O)s3)nn2)C(=O)NCCOCCOCCNC(=O)CN2CCN(CC(=O)O)CCN(CC(=O)O)CCN(CC(=O)O)CC2)C(=O)O)cc(C(=O)O)c1)(c1ccc(O)cc1)c1ccc(O)cc1.[Lu+3] (stereo partly drawn) [Compound 102.7]	< 1	2.5 to 10	–
NS(=O)(=O)c1nnc(NC(=O)C23CC(c4cn(CCNC(=O)[C@@H]5CN(C(=O)CN6CCN(CC(=O)O)CCN(CC(=O)O)CCN(CC(=O)O)CC6)CCN5C(=O)C[C@H](NC(=O)C[C@H](NC(=O)c5cc(C(F)(F)F)[nH]n5)C(=O)O)C(=O)O)nn4)(C2)C3)s1.[Lu+3] [Compound 109.6]	< 1	2.5 to 10	–
CC(CCCC(=O)N1CCOC[C@H]1C(=O)N[C@@H](CC(=O)N1CCN(C(=O)CN2CCN(CC(=O)O)CCN(CC(=O)O)CC2)C[C@@H]1C(=O)NCCn1cc(C23CC(C(=O)Nc4nnc(S(N)(=O)=O)s4)(C2)C3)nn1)C(=O)O)(c1ccc(O)cc1)c1ccc(O)cc1.[Cu+2] [Compound 126.3]	–	–	Kd (human CA-IX; Chelated Metal: Cu (cold); SPR, 25° C., pH 7.4; read-out: CAIX KD): < 1 nM; Kd (human CA-XII; Chelated Metal: Cu (cold), 25° C., pH 7.4, read-out: CAXII KD): > 10 nM
CC(CCC(=O)N[C@@H](CC(=O)N[C@@H](CC(=O)N[C@@H](CCCCn1cc(C23CC(C(=O)Nc4nnc(S(N)(=O)=O)s4)(C2)C3)nn1)C(=O)NCCOCCOCCNC(=O)CN1CCN(CC(=O)O)CCN(CC(=O)O)CCN(CC(=O)O)CC1)C(=O)O)C(=O)O)(c1ccc(O)cc1)c1ccc(O)cc1.[Lu+3] [Compound 100]	–	–	Kd (human CA-IX; [3]): 1 to 2.5 nM; Kd (human CA-XII; [4]): > 10 nM
CC(CCC(=O)N[C@@H](CC(=O)N[C@@H](Cc1cn([C@@H](CCCCn2cc(C34CC(C(=O)Nc5nnc(S(N)(=O)=O)s5)(C3)C4)nn2)C(=O)NCCOCCOCCNC(=O)CN2CCN(CC(=O)O)CCN(CC(=O)O)CCN(CC(=O)O)CC2)nn1)C(=O)O)C(=O)O)(c1ccc(O)cc1)c1ccc(O)cc1.[Lu+3] [Compound 101.2]	< 1	2.5 to 10	–
CC(CCC(=O)N[C@@H](CC(=O)N[C@@H](CC(=O)N1CCN(C(=O)CN2CCN(CC(=O)O)CCN(CC(=O)O)CCN(CC(=O)O)CC2)C[C@@H]1CCCCn1cc(C23CCC(C(=O)Nc4nnc(S(N)(=O)=O)s4)(CC2)C3)nn1)C(=O)O)C(=O)O)(c1ccc(O)cc1)c1ccc(O)cc1 [Compound 104.2]	–	–	Kd (human CA-IX; Chelated Metal: None; SPR, 25° C., pH 7.4; read-out: CAIX KD): < 1 nM; Ratio (CAXII/CAIX) (human CA-IX; KD ratio CAXII/CAIX; Chelated Metal: None): * (1 < * < 5); Kd (human CA-XII; Chelated Metal: None, 25° C., pH 7.4, read-out: CAXII KD): < 1 nM
NS(=O)(=O)c1nnc(NC(=O)C23CCC(c4cn(CCNC(=O)[C@@H]5CN(C(=O)CN6CCN(CC(=O)O)CCN(CC(=O)O)CCN(CC(=O)O)CC6)CCN5C(=O)CC[C@H](NC(=O)C[C@H](NC(=O)c5n[nH]c6ccc(O)cc56)C(=O)O)C(=O)O)nn4)(CC2)CC3)s1.[Lu+3] [Compound 109.45]	< 1	< 1	–
NC(=O)C1(C(=O)NCC(=O)N2CCN(C(=O)CN3CCN(CC(=O)O)CCN(CC(=O)O)CCN(CC(=O)O)CC3)C[C@H]2C(=O)NCCn2cc(C34CC(C(=O)Nc5nnc(S(N)(=O)=O)s5)(C3)C4)nn2)CCN(C(=O)Cn2nc(-c3ccc(O)cc3)c3ccc(O)cc32)CC1.[Lu+3] [Compound 107.37]	> 10	> 10	–
NS(=O)(=O)c1nnc(NC(=O)C23CCC(c4cn(CCNC(=O)[C@@H]5CN(C(=O)CN6CCN(CC(=O)O)CCN(CC(=O)O)CCN(CC(=O)O)CC6)CCN5C(=O)CC[C@H](NC(=O)C[C@H](NC(=O)c5n[nH]c6ccccc56)C(=O)O)C(=O)O)nn4)(CC2)CC3)s1.[Lu+3] [Compound 109.50]	< 1	< 1	–
NS(=O)(=O)c1nnc(NC(=O)C23CC(c4cn(CCNC(=O)[C@@H]5CN(C(=O)CN6CCN(CC(=O)O)CCN(CC(=O)O)CCN(CC(=O)O)CC6)CCN5C(=O)CNC(=O)C5(C(=O)O)CCN(C(=O)c6cc(C(F)(F)F)n[nH]6)CC5)nn4)(C2)C3)s1.[Lu+3] [Compound 112.11]	2.5 to 10	> 10	–
CC(CCC(=O)N1CCC[C@H]1C(=O)N[C@@H](CC(=O)N1CCN(C(=O)CN2CCN(CC(=O)O)CCN(CC(=O)O)CCN(CC(=O)O)CC2)C[C@@H]1C(=O)NCCn1cc(C23CC(C(=O)Nc4nnc(S(N)(=O)=O)s4)(C2)C3)nn1)C(=O)O)(c1ccc(O)cc1)c1ccc(O)cc1.[Lu+3] [Compound 108]	–	–	Kd (human CA-IX; [3]): 1 to 2.5 nM; Kd (human CA-XII; [4]): > 10 nM
NS(=O)(=O)c1nnc(NC(=O)C23CC(c4cn(CCNC(=O)[C@@H]5CN(C(=O)CN6CCN(CC(=O)O)CCN(CC(=O)O)CCN(CC(=O)O)CC6)CCN5C(=O)CNC(=O)C5(C(=O)O)CCN(C(=O)CC6CC7(CCC7)C6)CC5)nn4)(C2)C3)s1.[Lu+3] [Compound 112.8]	< 1	2.5 to 10	–
NS(=O)(=O)c1nnc(NC(=O)C23CC(c4cn(CCNC(=O)[C@@H]5CN(C(=O)CN6CCN(CC(=O)O)CCN(CC(=O)O)CCN(CC(=O)O)CC6)CCN5C(=O)CNC(=O)C5(C(=O)O)CCN(C(=O)CCCCc6ccc(O)cc6)CC5)nn4)(C2)C3)s1.[Lu+3] [Compound 112.3]	1 to 2.5	> 10	–
CC(CCCC(=O)N1CCC(C(N)=O)(C(=O)NCC(=O)NC2(C(=O)NCCn3nnc(C45CC(C(=O)Nc6nnc(S(N)(=O)=O)s6)(C4)C5)c3C(N)=O)CCN(C(=O)CN3CCN(CC(=O)O)CCN(CC(=O)O)CCN(CC(=O)O)CC3)CC2)CC1)(c1ccc(O)cc1)c1ccc(O)cc1.[Lu+3] [Compound 136]	–	–	Kd (human CA-IX; [3]): < 1 nM; Kd (human CA-XII; [4]): > 10 nM
Cc1cc(-c2cn(CCNC(=O)[C@@H]3CN(C(=O)CN4CCN(CC(=O)O)CCN(CC(=O)O)CCN(CC(=O)O)CC4)CCN3C(=O)C[C@H](NC(=O)C[C@H](NC(=O)CCC(C)(c3ccc(O)cc3)c3ccc(O)cc3)C(=O)O)C(=O)O)nn2)ccc1C(=O)Nc1nnc(S(N)(=O)=O)s1.[Lu+3] [Compound 107.40]	–	< 1	–
